# In patent US20180148418A1, “AMIDO-SUBSTITUTED CYCLOHEXANE DERIVATIVES” (Bayer Pharma Aktiengesellschaft, priority 2015, published 2018):
# pIC50: −log10 of the molar value.
# Experiments:
# [1] = test system: HEK293 cells cotransfected with the FOP control vector; assay: HEK293 FOP assay (control reporter with non-functional TCF elements); format: cell-based; conditions: 16 hours
# Description: In a parallel approach, HEK293 cells were cotransfected with the FOP control vector and pcDNA3. The FOP vector is identical to the TOP construct, but it contains instead of functional TCF elements a randomized, non-functional sequence. For this transfection a stable transfected cell line was generated as well, based on selection with Geneticin (1 mg/ml).
# (§1) In preparation of the assay, the two cell lines were plated 24 h before beginning the test at 10000 cells per well in a 384 micro titre plate (MTP) in 30 μl growth medium. […] The recombinant human Wnt-3a was thereby applied between 2500 and 5 ng/ml in two-fold dilution steps.
# (§2) Selective inhibitory activity for small molecules on the wildtype Wnt pathway was determined after parallel incubation of both (TOP and FOP) HEK293 reporter cell lines with a compound dilution series from 50 μM to 15 nM in steps of 3.16-fold dilutions in CAFTY buffer (130 mM sodium chloride, 5 mM potassium chloride, 20 mM HEPES, 1 mM magnesium chloride, 5 mM sodium bicarbonate, pH 7.4) containing 2 mM Ca^2+ and 0.01% BSA.
# (§3) The compounds were thereby serially prediluted in 100% DMSO and thereafter 50 fold into the CAFTY compound dilution buffer (described above).
# [2] = test system: wildtype Wnt signaling cascade; assay: HEK293 TOP assay (Super TopFlash luciferase reporter, Wnt-3a stimulated); format: cell-based; conditions: HEK293 TOP reporter cells, Wnt3a at EC50, 16 hours
# From the text: 7.1 Measurement of the Inhibitory Activity of Selected Compounds on the Wildtype Wnt Signaling Cascade: HEK293 TOP/FOP Assay
# In order to discover and characterize small molecules which inhibit the wildtype Wnt pathway, a cellular reporter assay was employed. The corresponding assay cell was generated by transfection of the mammalian cell line HEK293 (ATCC, #CRL-1573) with the Super TopFlash vector (Morin, Science 275, 1997, 1787-1790; Molenaar et al., Cell 86 (3), 1996, 391-399). The HEK293 cell line is cultivated at 37° C. and 5% CO2 in DMEM (Life Technologies, #41965-039), supplemented with 2 mM glutamine, 20 mM HEPES, 1.4 mM pyruvate, 0.15% Na-bicarbonate and 10% foetal bovine serum (GIBCO, #10270). Stable transfectants were generated by selection with 300 μg/ml Hygromycin.
# as §1, §2, §3
# [3] = molecular target: T1, TNKS2 (Homo sapiens, UniProt Q9H2K2); assay: TNKS2 Assay B (auto-parsylation, [3H]-NAD+ SPA); format: biochemical; conditions: 6 nM TNKS2, auto-parsylation, over night at room temperature
# T1 construct: purchased BPS Bioscience, San Diego, USA 80572 (TNKS2 Histone Ribosylation Assay Kit)
# T1 sequence (Q9H2K2 1-1166): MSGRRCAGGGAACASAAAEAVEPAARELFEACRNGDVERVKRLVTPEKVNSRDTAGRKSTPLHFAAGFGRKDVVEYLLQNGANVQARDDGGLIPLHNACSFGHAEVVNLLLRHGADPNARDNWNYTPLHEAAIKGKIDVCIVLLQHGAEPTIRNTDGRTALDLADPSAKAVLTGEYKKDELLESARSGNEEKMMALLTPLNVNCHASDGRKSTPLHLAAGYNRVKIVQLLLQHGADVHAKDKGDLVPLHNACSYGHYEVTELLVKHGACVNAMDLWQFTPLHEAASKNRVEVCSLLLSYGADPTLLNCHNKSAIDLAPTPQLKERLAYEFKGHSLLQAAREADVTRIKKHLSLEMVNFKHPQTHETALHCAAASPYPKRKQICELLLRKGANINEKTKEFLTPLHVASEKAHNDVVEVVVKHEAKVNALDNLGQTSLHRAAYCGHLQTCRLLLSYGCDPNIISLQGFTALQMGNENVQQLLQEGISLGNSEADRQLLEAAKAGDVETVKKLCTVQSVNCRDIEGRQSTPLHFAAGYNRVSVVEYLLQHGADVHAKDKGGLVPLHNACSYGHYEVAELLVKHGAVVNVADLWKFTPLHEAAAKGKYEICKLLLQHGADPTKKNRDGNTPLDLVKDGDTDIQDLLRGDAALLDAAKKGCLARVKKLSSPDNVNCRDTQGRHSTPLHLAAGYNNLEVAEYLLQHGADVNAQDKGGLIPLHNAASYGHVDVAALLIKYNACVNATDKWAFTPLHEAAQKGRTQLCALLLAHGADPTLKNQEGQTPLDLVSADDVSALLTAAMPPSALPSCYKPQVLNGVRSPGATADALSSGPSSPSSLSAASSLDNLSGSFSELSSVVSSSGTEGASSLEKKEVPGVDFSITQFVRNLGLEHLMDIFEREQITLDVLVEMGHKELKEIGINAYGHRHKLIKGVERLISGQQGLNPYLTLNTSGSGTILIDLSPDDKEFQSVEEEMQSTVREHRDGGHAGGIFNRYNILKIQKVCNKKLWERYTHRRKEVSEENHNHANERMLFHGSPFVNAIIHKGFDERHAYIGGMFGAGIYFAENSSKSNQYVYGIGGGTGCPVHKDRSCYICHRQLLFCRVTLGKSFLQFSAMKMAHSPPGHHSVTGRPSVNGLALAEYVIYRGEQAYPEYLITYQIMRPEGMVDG
# Description: The potency of selected compounds according to the invention was assessed applying a modified in vitro inhibition assay. Here, the TNKS2 catalyzed NAD^+-dependent ribosylation of the enzyme itself (auto-parsylation) was detected using [^3H]-NAD^+ as substrate and applying the scintillation proximity assay (SPA) method to detect tritium-labeled, parsylated TNKS2. The intensity of the readout signal is proportional to the incorporated [^3H]-NAD^+. Inhibition of TNKS2 leads to a decreased incorporation of [^3H]-NAD^+ and consequently to a lower readout signal intensity. The concentration of a test compound which inhibits the enzyme activity by 50% (corresponds to half of the normed readout signal intensity) is reported as IC50.
# Protocol Auto-Parsylation Assay
# The assay was conducted in a 96 well MTP format with the identical TNKS2 enzyme sample and NAD^+ sample as in the histone ribosylation assay with the following modifications: TNKS2 enzyme sample was diluted with a modified assay buffer (50 mM MES pH 7.0, 1 mM DTT, 0.01% Triton X-100) to a final concentration of 6 nM TNKS2 and 10×NAD^+ solution was diluted with the modified assay buffer (s. above) to a final 0.445×NAD^+ solution doped with 100 Bq/μl [^3H]-NAD^+[Catalog #NET443H050UC, Perkin Elmer, Waltham, Mass., USA]. Substrate solution (10 μl) was incubated with different test compound concentrations (2.5 μl in 10% DMSO in modified assay buffer) or control (2.5 μl 10% DMSO in modified assay buffer only) and enzyme (10 μl) over night at room temperature. Incorporated tritium was measured after addition of 50 ul SPA beads (1 mg/ml) [Catalog #RPNQ0095 20 mg/ml, Perkin Elmer, Waltham, Mass., USA; diluted 1:10 with Dulbecco's phosphate buffered saline, PBS Catalog #D8537, Sigma-Aldrich, Steinheim, Germany] and detection of the photon emission with a beta count plate reader [Wallac MicroBeta®, Perkin Elmer, Waltham, Mass., USA].
"pIC50 ([2]; Homo sapiens, HEK293, 16 h)",pIC50 [3],SMILES,pIC50 ([1]; Homo sapiens),pIC50 [1],pIC50 [2]
7.52,,"CNC(=O)c1[nH]cnc1C(=O)N[C@H]1CC[C@]2(CC1)CC(O)N(c1ccc(F)cc1Cl)C2=O (mixture of isomers) [Example 307, N^4-[(trans)-2-(2-chloro-4-fluorophenyl)-3-hydroxy-1-oxo-2-azaspiro[4.5]dec-8-yl]-N^5-methyl-1H-imidazole-4,5-dicarboxamide (mixture of isomers at C3)]",≤ 4.30,,
8.47,8.08,"CC1C[C@]2(CC[C@@H](NC(=O)c3cnn4cccnc34)CC2)C(=O)N1c1ccc(F)cc1Cl (mixture of isomers) [Example 355, N-[(trans)-2-(2-chloro-4-fluorophenyl)-3-methyl-1-oxo-2-azaspiro[4.5]dec-8-yl]pyrazolo[1,5-a]pyrimidine-3-carboxamide (mixture of isomers at C3)]",≤ 4.30,,
8.24,7.39,"Cc1c(C(C)N(C)C)cnc2c(C(=O)N[C@H]3CC[C@@]4(CCN(c5ccc(F)cc5Cl)C4=O)CC3)cnn12 (mixture of isomers) [Example 358, N-[(trans)-2-(2-chloro-4-fluorophenyl)-1-oxo-2-azaspiro[4.5]dec-8-yl]-6-[1-(dimethylamino)ethyl]-7-methylpyrazolo[1,5-a]pyrimidine-3-carboxamide (racemate)]",≤ 4.30,,
,,"CC1CC2(CCC(NC(=O)c3cnn4cccnc34)CC2)C(=O)N1c1ccc(F)cc1Cl (single isomer, unassigned; enantiomer 1) [Example 356, N-[(trans)-2-(2-chloro-4-fluorophenyl)-3-methyl-1-oxo-2-azaspiro[4.5]dec-8-yl]pyrazolo[1,5-a]pyrimidine-3-carboxamide (enantiomer 1)]",,≤ 4.30,7.59
,,"CC1CC2(CCC(NC(=O)c3cnn4cccnc34)CC2)C(=O)N1c1ccc(F)cc1Cl (single isomer, unassigned; enantiomer 2) [Example 357, N-[(trans)-2-(2-chloro-4-fluorophenyl)-3-methyl-1-oxo-2-azaspiro[4.5]dec-8-yl]pyrazolo[1,5-a]pyrimidine-3-carboxamide (enantiomer 2)]",,≤ 4.30,8.28
6.68,,"CNC(=O)c1[nH]cnc1C(=O)N[C@H]1CC[C@H](C(=O)Nc2ccc(F)cc2Cl)CC1(F)F (stereo in doubt) [Example 34, N^4-{(trans)-4-[(2-chloro-4-fluorophenyl)carbamoyl]-2,2-difluorocyclohexyl}-N^5-methyl-1H-imidazole-4,5-dicarboxamide]",≤ 4.30,,
6.36,,"CNC(=O)c1[nH]cnc1C(=O)NC1CCC(C(=O)Nc2ccc(F)cc2Cl)CC1C (centres unmarked) [Example 38, N^4-{4-[(2-chloro-4-fluorophenyl)carbamoyl]-2-methylcyclohexyl}-N^5-methyl-1H-imidazole-4,5-dicarboxamide]",≤ 4.30,,
,,"CNC(=O)c1[nH]cnc1C(=O)NC1CCC(C(=O)Nc2ccc(F)cc2Cl)CC1C (centres unmarked) [Example 40, N^4-{4-[(2-chloro-4-fluorophenyl)carbamoyl]-2-methylcyclohexyl}-N^5-methyl-1H-imidazole-4,5-dicarboxamide]",,≤ 4.30,6.34
6.85,,"O=C(N[C@H]1CC[C@H](C(=O)Nc2c(F)cc(F)cc2Cl)CC1)c1cnn2cccnc12 [Example 131, N-{trans-4-[(2-chloro-4,6-difluorophenyl)carbamoyl]cyclohexyl}pyrazolo[1,5-a]pyrimidine-3-carboxamide]",≤ 4.30,,
7.04,6.85,"N#Cc1cc(F)cc(Cl)c1NC(=O)[C@H]1CC[C@H](NC(=O)c2cnn3cccnc23)CC1 [Example 152, N-{trans-4-[(2-chloro-6-cyano-4-fluorophenyl)carbamoyl]cyclohexyl}pyrazolo[1,5-a]pyrimidine-3-carboxamide]",≤ 4.30,,
6.28,6.77,"Cc1cc(NC(=O)[C@H]2CC[C@H](NC(=O)c3cnn4cccnc34)CC2)c(Cl)cn1 [Example 153, N-{trans-4-[(5-chloro-2-methylpyridin-4-yl)carbamoyl]cyclohexyl}pyrazolo[1,5-a]pyrimidine-3-carboxamide]",≤ 4.30,,
5.80,,"CNC(=O)c1nc[nH]c1C(=O)N[C@H]1CC[C@H](C(=O)Nc2snc(C)c2Cl)CC1 [Example 175, N^5-{trans-4-[(4-chloro-3-methyl-1,2-thiazol-5-yl)carbamoyl]cyclohexyl}-N^4-methyl-1H-imidazole-4,5-dicarboxamide]",5.89,,
7.24,,"CN1CCN(c2ccn3ncc(C(=O)N[C@H]4CC[C@@]5(CCN(c6ccc(F)cc6Cl)C5=O)CC4)c3n2)CC1 [Example 229, N-[(trans)-2-(2-chloro-4-fluorophenyl)-1-oxo-2-azaspiro[4.5]dec-8-yl]-5-(4-methylpiperazin-1-yl)pyrazolo[1,5-a]pyrimidine-3-carboxamide]",≤ 4.30,,
6.77,,"Cc1cc(O)n2ncc(C(=O)N[C@H]3CC[C@@]4(CCN(c5ccc(F)cc5Cl)C4=O)CC3)c2n1 [Example 364, N-[(trans)-2-(2-chloro-4-fluorophenyl)-1-oxo-2-azaspiro[4.5]dec-8-yl]-7-hydroxy-5-methylpyrazolo[1,5-a]pyrimidine-3-carboxamide]",≤ 4.30,,
